These results are taken from publication PMC10256776, “Cryo-EM structures of ClC-2 chloride channel reveal the blocking mechanism of its specific inhibitor AK-42” (Nature Communications, 2023).

Assay in all cases: whole-cell patch clamp, […] AK-42
Holding throughout (type): cell-based
In general terms: In patch-clamp work, channel activity is measured electrically.

In experiment [1] the target is T1, ClC-2 (Homo sapiens, UniProt P51788, K394R).
T1 construct: gene CLCN2; human ClC-2 mutant expressed in CHO-K1 cells
T1 sequence (P51788 2-898 K394R): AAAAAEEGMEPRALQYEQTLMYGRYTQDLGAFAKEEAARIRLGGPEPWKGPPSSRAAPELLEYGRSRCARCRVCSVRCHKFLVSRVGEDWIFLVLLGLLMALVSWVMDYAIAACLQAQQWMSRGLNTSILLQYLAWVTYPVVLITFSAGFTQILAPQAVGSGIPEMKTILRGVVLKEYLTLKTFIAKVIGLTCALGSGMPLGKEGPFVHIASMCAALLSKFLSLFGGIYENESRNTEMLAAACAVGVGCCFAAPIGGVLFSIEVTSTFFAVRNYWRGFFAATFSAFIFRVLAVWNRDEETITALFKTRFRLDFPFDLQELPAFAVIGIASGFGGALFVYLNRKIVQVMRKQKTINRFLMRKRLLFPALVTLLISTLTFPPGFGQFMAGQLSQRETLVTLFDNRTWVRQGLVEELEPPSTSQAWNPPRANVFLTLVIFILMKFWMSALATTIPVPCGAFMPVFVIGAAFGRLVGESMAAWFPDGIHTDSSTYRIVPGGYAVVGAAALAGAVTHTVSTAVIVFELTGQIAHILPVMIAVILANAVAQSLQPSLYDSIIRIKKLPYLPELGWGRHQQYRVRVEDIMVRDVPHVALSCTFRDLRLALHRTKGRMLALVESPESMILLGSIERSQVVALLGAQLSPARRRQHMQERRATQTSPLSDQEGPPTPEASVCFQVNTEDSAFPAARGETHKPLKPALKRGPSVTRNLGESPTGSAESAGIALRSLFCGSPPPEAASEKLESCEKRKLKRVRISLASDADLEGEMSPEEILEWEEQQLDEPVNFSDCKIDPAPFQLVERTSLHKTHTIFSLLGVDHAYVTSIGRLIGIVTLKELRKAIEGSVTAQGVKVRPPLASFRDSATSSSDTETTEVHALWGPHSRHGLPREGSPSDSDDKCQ

Experiment [2] addresses T2, ClC-2 (Homo sapiens, UniProt P51788, K394A).
T2 construct: gene CLCN2; human ClC-2 mutant expressed in CHO-K1 cells
T2 sequence (P51788 2-898 K394A): T1 sequence (P51788 2-898 K394R) with R393A

The target in experiment [3] is T3, ClC-2 (Homo sapiens, UniProt P51788, F459A).
T3 construct: gene CLCN2; human ClC-2 mutant expressed in CHO-K1 cells
T3 sequence (P51788 2-898 F459A): T1 sequence (P51788 2-898 K394R) with R393K, F458A

SMILES strings stand for the structures. Substitutions are numbered along the chain they refer to.

On to `O=C(O)c1cccnc1Nc1c(Cl)ccc(OCc2ccccc2)c1Cl` [AK-42, 2-((3-(benzyloxy)−2,6-dichlorophenyl)amino)nicotinic acid], for which the “whole-cell patch clamp, 30 nM AK-42” value on ClC-2 [1] was “K394R and K394A showed a slightly lower but not significant percent inhibition of AK-42 than wild-type ClC-2”; on ClC-2 [2], “K394R and K394A showed a slightly lower but not significant percent inhibition of AK-42 than wild-type ClC-2”; at ClC-2 [3], “the mutation F459A in the hydrophobic pocket shows a higher percent inhibition value than wild-type ClC-2”.
